We go through 13 compounds from ChEMBL document CHEMBL1201862, “PubChem BioAssay data set” (2004).

Molecules are shown by their SMILES.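 Interpolation was linear, between the two tested concentrations surrounding the appropriate level; five concentrations were tested over 48 hours in 96-well plates. GI50 is the concentration that inhibits growth by half.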 Activity calls are given as the source filed them. Cut-off read from the data, not from the text of the source: active = GI50 up to about 1.1 µM and inactive = higher.

Holding throughout (experiment): NCI anticancer screen, dose series, 48 h
The test system of test [1] is M14.
The test system of test [2] is SW-620.
For test [3], the system named is OVCAR-3.
Test [4] concerns HOP-62.
The subject of test [5] is SR.
Test [6] has as its system SF-539.
Test [7] relates to K562.
For test [8], the system named is ACHN.
The test system of test [9] is OVCAR-8.
Test [10] concerns 786-0.
Test [11] relates to HL-60.
Test [12] relates to SK-MEL-2.
In test [13] the test system is UACC-62.
For test [14], the system named is MOLT-4.
The test system of test [15] is HCC 2998.

As for `CC12CC[C@H](O)C(C)(C)[C@H]1CC[C@](C)(O)C2COc1ccc2ccc(=O)oc2c1` (some centres not stated), the GI50 in [1], in [2], in [3], in [4], in test [5] and in test [6] was > 100 µM (inactive) throughout. Further, the GI50 in [7] is 71 µM (inactive); in [8] it was > 100 µM (inactive); in test [9] it was > 100 µM (inactive); in test [10], > 100 µM (inactive); in [11] it was 53.1 µM (inactive); in test [12], > 100 µM (inactive). Moreover, the GI50 in test [13] was 64.4 µM (inactive); in test [14], 80.9 µM (inactive); in test [15] it was > 100 µM (inactive).
Consider `Nc1ccc(C(=O)N/C(=C\c2cccc([N+](=O)[O-])c2)c2nc3ccccc3[nH]2)cc1`, for which the GI50 was > 100 µM (inactive) in test [1]; > 100 µM (inactive) in [2]; 50.2 µM (inactive) in test [3]; 21.8 µM (inactive) in test [4]; > 100 µM (inactive) in test [5]; 22.8 µM (inactive) in test [6]. The GI50 in [7] is > 100 µM (inactive); in [8], 40.6 µM (inactive); in test [9], 33.1 µM (inactive); in [10], 28.4 µM (inactive); in test [11] it was > 81.7 µM (inactive); in test [12], 37.2 µM (inactive). Moreover, the figures for the GI50 in test [13], in test [14] and in [15] were 46 µM (inactive), > 100 µM (inactive) and > 100 µM (inactive), respectively.
Consider `CC1(C)O[C@@H](CC/C=C/CO)[C@H](CC/C=C/CO)O1`, for which the GI50 in test [1] is > 100 µM (inactive); in test [2], > 100 µM (inactive); in [3], > 100 µM (inactive); in test [4] it was > 100 µM (inactive); in test [5], 74.6 µM (inactive); in test [6] it was > 100 µM (inactive). The GI50 in [7] is > 100 µM (inactive); in test [8], > 100 µM (inactive); in test [9] it was > 100 µM (inactive); in test [10], > 100 µM (inactive); in test [11] it was 63.8 µM (inactive); in test [12], > 100 µM (inactive). Further, the GI50 in test [14] and in test [15] was > 100 µM (inactive) throughout.
For `CC(=O)C=C1Nc2ccccc2N1`, the GI50 in test [1], in test [2], in test [3], in [5], in [6] and in test [7] was > 100 µM (inactive) throughout. The GI50 in test [8], in test [9], in test [10], in test [11], in test [12] and in test [13] was > 100 µM (inactive) in each case. Besides, the GI50 in test [14] and in test [15] was > 100 µM (inactive) each time.
Consider `Cc1ccc(NC(=O)CC2SC(Nc3ccc(Cl)cc3)=NC2=O)cc1C` (configuration not stated), for which the GI50 is 16.9 µM (inactive) in [1]; 7.08 µM (inactive) in test [2]; 18.9 µM (inactive) in [3]; > 100 µM (inactive) in test [4]; 6.59 µM (inactive) in [5]; 20.8 µM (inactive) in test [6]. For the same compound, the GI50 is 3.75 µM (inactive) in test [7]; 16.1 µM (inactive) in test [8]; 18 µM (inactive) in test [9]; 17.8 µM (inactive) in [10]; 3.12 µM (inactive) in test [11]; 12.7 µM (inactive) in test [12]. Moreover, the results for the GI50 in test [13], in test [14] and in test [15] were 18.3 µM (inactive), 2.38 µM (inactive) and 18.6 µM (inactive), respectively.
Regarding `N#C/C(N)=N/c1ccccc1`, the GI50 in test [1], in test [2], in test [3], in test [4], in test [5] and in [6] was > 100 µM (inactive) in each case. Moreover, the GI50 is 71 µM (inactive) in [7]; > 100 µM (inactive) in [8]; > 100 µM (inactive) in test [9]; > 100 µM (inactive) in [10]; > 100 µM (inactive) in test [11]; > 100 µM (inactive) in test [12]. Further, the GI50 in test [13], in test [14] and in test [15] was > 100 µM (inactive) each time.
Regarding `C[N+](C)(C)CC(=O)N/N=C(/Cc1cc(=O)oc2cc(O)ccc12)C(=O)Nc1ccc(Cl)cc1`, the GI50 in test [1], in test [2], in [3], in test [4], in test [5] and in test [6] was > 100 µM (inactive) each time. Further, the GI50 in test [7], in test [8], in test [9], in test [10], in test [11] and in test [12] was > 100 µM (inactive) in each case. In addition, the GI50 in test [13], in test [14] and in test [15] was > 100 µM (inactive) in each case.
As to `CCc1cccc(C)c1N1C(=O)C(=O)C(c2nc3ccccc3o2)C(=O)C1=O`, the GI50 in [1], in test [2], in test [3], in [4], in test [5] and in [6] was > 100 µM (inactive) in each case. For the same compound, the GI50 in [7], in test [8], in test [9], in test [10], in test [11] and in test [12] was > 100 µM (inactive) in each case. The GI50 in test [13], in test [14] and in [15] was > 100 µM (inactive) throughout.
For `CCCN/C(N)=N/C#N`, the GI50 in test [1] was > 100 µM (inactive); in test [2], 13.6 µM (inactive); in [3], > 100 µM (inactive); in test [4] it was > 100 µM (inactive); in test [5], 25.1 µM (inactive); in test [6], > 100 µM (inactive). Moreover, the GI50 was 60.3 µM (inactive) in [7]; > 100 µM (inactive) in [8]; > 100 µM (inactive) in test [9]; 25.3 µM (inactive) in test [10]; > 100 µM (inactive) in test [11]; > 100 µM (inactive) in test [12]. Also, the GI50 in test [13], in test [14] and in [15] was > 100 µM (inactive) each time.
On to `CN(C(=O)C12C3C4C1C1C4(C(=O)C45C6C7C4C4C5C6C74C)C3C12C)C(C)(C)C` (configuration not stated), for which the GI50 in [1] was > 100 µM (inactive); in test [2], > 100 µM (inactive); in test [4], > 100 µM (inactive); in test [5], 29.2 µM (inactive); in test [6], > 100 µM (inactive); in test [7], 26.4 µM (inactive). Also, the GI50 in test [8] was 74.3 µM (inactive); in test [9], > 100 µM (inactive); in test [10], 67.9 µM (inactive); in test [11], 14.8 µM (inactive); in [12], > 100 µM (inactive); in test [13], 48.3 µM (inactive). Moreover, the figures for the GI50 in test [14] and in test [15] were 40.3 µM (inactive) and 91 µM (inactive), respectively.
Regarding `C[Si](C)(C)CN1C(=O)c2ccccc2C1(O)c1ccccc1` (configuration not stated), the GI50 in [1] was > 100 µM (inactive); in [2], > 100 µM (inactive); in [3], > 86.3 µM (inactive); in [4] it was > 100 µM (inactive); in test [5], 83.6 µM (inactive); in test [6], > 100 µM (inactive). The GI50 in test [7] was 40.1 µM (inactive); in test [8] it was 56.1 µM (inactive); in test [9], > 100 µM (inactive); in test [10], > 100 µM (inactive); in [11], 40.7 µM (inactive); in [12], 97.1 µM (inactive). For the same compound, the GI50 in test [13] was 62.7 µM (inactive); in test [14] it was 24.2 µM (inactive); in test [15], > 100 µM (inactive).
As to `COc1cccc(C=O)c1C(=O)c1cc(O)ccc1O`, the GI50 in test [1] was 17.9 µM (inactive); in test [2], 17.1 µM (inactive); in [3], 20.2 µM (inactive); in [4] it was > 100 µM (inactive); in test [5], 0.457 µM (active); in test [6], > 100 µM (inactive). The GI50 was > 10 µM (inactive) in [7]; 17.6 µM (inactive) in [8]; 20.3 µM (inactive) in test [9]; > 100 µM (inactive) in test [10]; 9.62 µM (inactive) in test [11]; > 100 µM (inactive) in test [12]. Besides, the GI50 in test [13] is 54.8 µM (inactive); in [14], 3.13 µM (inactive); in test [15] it was > 100 µM (inactive).
For `CC[N+](CC)(CC)Cc1cc2ccccc2n1C(=O)OC`, the GI50 was > 100 µM (inactive) in [1]; > 100 µM (inactive) in [2]; 70.6 µM (inactive) in test [3]; > 100 µM (inactive) in test [4]; > 100 µM (inactive) in test [5]; > 100 µM (inactive) in test [6]. Also, the GI50 in [7], in test [8], in test [9], in test [10], in test [11] and in test [12] was > 100 µM (inactive) throughout. Besides, the GI50 in test [13], in test [14] and in test [15] was > 100 µM (inactive) each time.
